Data taken from patent US20260007760A1, “CAMPTOTHECIN DERIVATIVES THAT BIND TO DDX5 PROTEIN AND PRODRUGS THEREOF” (priority 2022, published 2026).

Assays:
[1] = over 21 days; bioconjugated to anti-HER2 antibody, DAR 8; cited from earlier work
[2] = Lactone to carboxylate form conversion in pH 7.4 (RP-HPLC); format: physicochemical; details: for Conversion from lactone form (active) to carboxylate form (inactive) compared with reference compounds: pH 7.4, references exatecan, DXd, SN-38, FL118
cancer cells = details: cited from earlier work
[3] = system: Survivin, cIAP2, Mcl-1, XIAP; test: Western blot, expression inhibition of anti-apoptotic proteins in FaDu cell line; format: cell-based; details: Western blot, 0, 10, 100 nM, 24 hours
DDX5 = DDX5 (Homo sapiens, UniProt P17844); test: Western blot, DDX5 degradation in two cell lines (FaDu, A549); details: FaDu and A549, 0, 10, 100 nM
[4] = system: FaDu (Trop2+++) cell lines and Calu-6 (Trop2−−) cell lines; test: In vitro cell cytotoxicity test of Sacituzumab-25-6 (6 days); details: free payload
[5] = system: MDA-MB-453 (HER2++) cell line; test: Cell viability assay (CellTiter-Glo), MDA-MB-453 cell line; details: MDA-MB-453 and FaDu cell lines, 3 days
[6] = mouse, in vivo, ip
FaDu cell line = test: Cell viability assay (CellTiter-Glo), FaDu cell line; format: cell-based; details: FaDu (does not express ABCG2), 3-day incubation
Method: After 24 hours, the cells were treated with 100 μl of drugs at 9 concentrations (serial dilutions of 1/5 each from 1,000 nM). […] Also, a control group (drug concentration 0) that was not treated with drugs was prepared. Incubation at constant temperature (37° C., 5% CO2) was performed for 3 or 6 days. 100 ul of CellTiter-Glo reagent (using CellTiter-Glo® Luminescent Cell Viability Assay kit (Promega, G7571)) was added to each well and pipetted. After incubating at constant temperature (RT) for 10 minutes, luminescence was measured.
Cell viability assays were performed on MDA-MB-453 (HER2++) cell lines and FaDu (HER2+) cell lines using the same method as Example 2-2.

[7] = days 1 and 8 of a 21-day cycle, 25 patients; cited from earlier work
[8] = human, in vivo; cited from earlier work

Sequence of DDX5 (P17844 whole entry): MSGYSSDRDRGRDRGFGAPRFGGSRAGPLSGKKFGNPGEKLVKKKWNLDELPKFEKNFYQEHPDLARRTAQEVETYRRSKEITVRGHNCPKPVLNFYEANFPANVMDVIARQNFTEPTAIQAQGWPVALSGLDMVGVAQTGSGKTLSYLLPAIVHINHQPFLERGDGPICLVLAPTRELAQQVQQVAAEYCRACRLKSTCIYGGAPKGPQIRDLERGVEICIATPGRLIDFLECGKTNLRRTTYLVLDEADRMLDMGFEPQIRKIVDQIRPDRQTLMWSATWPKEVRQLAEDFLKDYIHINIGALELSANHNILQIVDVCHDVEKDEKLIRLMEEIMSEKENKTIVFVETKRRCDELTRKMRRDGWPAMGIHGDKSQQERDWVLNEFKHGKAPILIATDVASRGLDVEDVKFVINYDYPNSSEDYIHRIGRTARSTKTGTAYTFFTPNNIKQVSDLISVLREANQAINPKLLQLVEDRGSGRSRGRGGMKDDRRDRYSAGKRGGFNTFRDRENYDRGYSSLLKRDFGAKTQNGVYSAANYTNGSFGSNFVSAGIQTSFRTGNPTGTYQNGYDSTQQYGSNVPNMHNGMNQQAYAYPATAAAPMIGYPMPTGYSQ

## CC[C@@]1(O)C(=O)OCc2c1cc1n(c2=O)Cc2c-1nc1cc(F)c(C)c3c1c2[C@@H](NC(=O)CO)CC3 [Dxd]
[1]
  Released in plasma: 2.1%
[2]; pH 7.4, 37° C.
  Degree of formation of the carboxylate form: about 76.5%
  Rate of conversion from the lactone form to the carboxylate form: 0.6 % per minute
Cancer cells
  Activity in cancer cells relative to SN-38: 10 times

## CC[C@@]1(O)C(=O)OCc2c1cc1n(c2=O)Cc2c-1nc1cc(F)c(C)c3c1c2[C@@H](N)CC3 [Exatecan]
[3]
  Expression of anti-apoptotic proteins (Survivin, cIAP2, Mcl-1, XIAP): strongly inhibits the expression of anti-apoptotic proteins

## CC[C@@]1(O)C(=O)OCc2c1cc1n(c2=O)Cc2cc3cc4c(cc3nc2-1)OCO4 [FL118]
DDX5
  DDX5 degradation: superior to other substances in DDX5 degradation
[3]
  Expression of anti-apoptotic proteins (Survivin, cIAP2, Mcl-1, XIAP): strongly inhibiting the expression of anti-apoptotic proteins
Cancer cells; various cancer cell lines
  Cytotoxicity relative to SN-38 (times more potent): 5-10 times

## CC[C@@]1(O)C(=O)OCc2c1cc1n(c2=O)Cc2c-1nc1cc3c(c4c1c2[C@@H](N)CC4)OCO3 [PBX-7011, (1S,10S)-1-amino-10-ethyl-10-hydroxy-1,2,3,10,13,16-hexahydro-11H,14H-benzo[de][1,3]dioxolo[4,5-g]pyrano[3′,4′:6,7]indolizino[1,2-b]quinoline-11,14-dione]
[3]
  Expression of anti-apoptotic proteins (Survivin, cIAP2, Mcl-1, XIAP): decrease in the expression of Survivin, cIAP2, Mcl-1, and XIAP as the concentration increased

## CC[C@@]1(O)C(=O)OCc2c1cc1n(c2=O)Cc2c-1nc1cc3c(c4c1c2[C@@H](NC(=O)CO)CC4)OCO3 [PBX-7014]
[3]
  Expression of anti-apoptotic proteins (Survivin, cIAP2, Mcl-1, XIAP): decrease in the expression of Survivin, cIAP2, Mcl-1, and XIAP as the concentration increased
[2]; pH 7.4, 37° C.
  Rate of conversion from the lactone form to the carboxylate form: 0.8 % per minute
[2]
  Conversion from lactone form (active) to carboxylate form (inactive) compared with reference compounds: more rapidly and at a higher rate than other reference compounds

## CC[C@@]1(O)C(=O)OCc2c1cc1n(c2=O)Cc2c-1nc1cc3c(c4c1c2[C@@H](NC(=O)[C@@H](C)O)CC4)OCO3 [PBX-7016]
DDX5
  DDX5 degradation: inhibited DDX5 in a concentration-dependent manner
[4]
  Cell membrane penetration of non-target cells / cell death: can penetrate the cell membrane of non-target cells
[5]
  IC50 level compared with Dxd: equivalent to or higher than Dxd
[3]
  Expression of anti-apoptotic proteins (Survivin, cIAP2, Mcl-1, XIAP): decrease in the expression of Survivin, cIAP2, Mcl-1, and XIAP as the concentration increased
[2]; pH 7.4, 37° C.
  Rate of conversion from the lactone form to the carboxylate form: 0.8 % per minute
[2]
  Conversion from lactone form (active) to carboxylate form (inactive) compared with reference compounds: more rapidly and at a higher rate than other reference compounds
[6]
  Clearance from the blood: cleared from the blood very quickly

## CC[C@@]1(O)C(=O)OCc2c1cc1n(c2=O)Cc2c-1nc1cc3c(c4c1c2[C@@H](NC(=O)[C@@H](O)C1CC1)CC4)OCO3 [PBX-7024]
[2]
  Conversion from lactone form (active) to carboxylate form (inactive) compared with reference compounds: more rapidly and at a higher rate than other reference compounds
FaDu cell line
  Cell killing efficacy (IC50): strong cell killing efficacy

## CCc1c2c(nc3ccc(O)cc13)-c1cc3c(c(=O)n1C2)COC(=O)[C@]3(O)CC [SN-38]
Cancer cells; several cell lines
  IC50 values: nanomolar range

## sacituzumab govitecan
[7]
  Dose-limiting toxicity: neutropenia
[8]
  Diarrhea, all-grade: 65%
  Febrile neutropenia: 7%
  Neutropenia, Grade≥3: 47%
  Neutropenia, all-grade: 61%
  Neutropenic colitis: 0.5%
